The values below come from paper PMC7238241, “Lack of Correlation between In Vitro and In Vivo Studies on the Inhibitory Effects of (‒)-Sophoranone on CYP2C9 Is Attributable to Low Oral Absorption and Extensive Plasma Protein Binding of (‒)-Sophoranone” (Pharmaceutics, 2020).

Usually Ki stands for a measure of affinity in units of concentration, obtained from inhibition or displacement. Usually IC50 stands for the concentration needed to halve the response being measured. A high value points to weaker potency in that assay. As a reminder, the Papp A→B is the apparent permeability from the apical to the basolateral side of a cell layer. Read a high Papp A→B as ready permeation. For orientation: Papp B→A means the apparent permeability from the basolateral to the apical side of a cell layer.

Details of series [1]: method as in PMID 26068519. As to conditions: rats, oral 12.9 mg/kg SPN; cited from earlier work.
The target of a further series is T1, CYP2C9 (Homo sapiens, UniProt P11712).
T1 construct: tissue Corning Life Sciences; host or cells: pooled human liver microsomes, 150 donors
Kind of series: Determination of Ki and inhibition type on CYP2C9 activity in human liver microsomes. Type of series: biochemical. As to conditions: for Ki: human liver microsomes, n = 3. As for the experimental part:
Based on the IC50 values, the Ki values of SPN on CYP2C9 activity were determined. […] Other procedures were similar to those of the reversible inhibition studies. All incubations were performed in triplicate, and the data are shown as the mean ± standard deviation.
The IC50 values were calculated via nonlinear least-squares regression analysis from logarithmic plots of inhibitor concentration versus percentage of activity remaining after inhibition, using SigmaPlot (ver. 14.0; Systat Software Inc, Chicago, IL, USA). The Ki values were determined from the equations for a single substrate single inhibitor model and the software available in the SigmaPlot Enzyme Kinetics module. Competitive, non-competitive, uncompetitive, or mixed inhibition models were evaluated and ranked according to the best fit based on Akaike Information Criterion (AIC) values. For visual inspection, the data were presented as Dixon plots.

A further series deals with T2, CYP2C19 (Homo sapiens, UniProt P33261).
T2 construct: tissue Corning Life Sciences; host or cells: pooled human liver microsomes, 150 donors
Kind of series: Reversible CYP2C19 inhibition, cocktail assay (omeprazole 5-hydroxylase) in human liver microsomes. It is filed as biochemical. As to conditions: human liver microsomes 0.1 mg/mL, omeprazole probe, n = 3. As for the experimental part:
(§1) The inhibitory effects of SPN on CYP1A2, CYP2A6, CYP2B6, CYP2C8, CYP2C9, CYP2C19, CYP2D6, CYP2E1, and CYP3A4 were evaluated in pooled human liver microsomes through the use of specific CYP probe substrates (cocktail assay), as previously described with a slight modification. Concentrations of each CYP probe in Table 1 were used close to their reported Km values.
(§2) Briefly, a 90-µL incubation mixture, including pooled human liver microsomes (final concentration 0.1 mg/mL), 50 mM phosphate buffer (pH 7.4), each CYP-probe substrate cocktail set, and SPN (0–50 μM), was pre-incubated for 5 min at 37 °C. SPN was dissolved in methanol and spiked into the incubation mixture to a final concentration of 0.5% methanol. […]
(§3) The IC50 values were calculated via nonlinear least-squares regression analysis from logarithmic plots of inhibitor concentration versus percentage of activity remaining after inhibition, using SigmaPlot (ver. 14.0; Systat Software Inc, Chicago, IL, USA). The Ki values were determined from the equations for a single substrate single inhibitor model and the software available in the SigmaPlot Enzyme Kinetics module. Competitive, non-competitive, uncompetitive, or mixed inhibition models were evaluated and ranked according to the best fit based on Akaike Information Criterion (AIC) values. […]
Background: Liver microsomes are vesicles of endoplasmic reticulum, rich in cytochrome P450 enzymes.

Series [2] is described as follows: Bi-directional Caco-2 cell permeability. It is filed as in vitro ADME. As to conditions: human, Caco-2. As for the experimental part: Caco-2 cell permeability was assessed to predict the oral absorption of SPN. Cell culture and transport studies were performed as previously described. Briefly, for the bi-directional transport studies, the cells were seeded at a density of 1 × 10^5 cells/well, and the cell medium was replaced until they formed confluent monolayers. On the 25th day, the cell monolayers were washed with pre-warmed HBSS buffer. […] Before the experiment, the integrity of the cell monolayers was evaluated by measuring the transepithelial electrical resistance using a Millicell ohmmeter. After 2 h incubation at 37 °C, samples were withdrawn from both sides, respectively. All samples were stored at −80 °C until LC-MS/MS analysis, and all experiments were performed in triplicate.
The apparent permeability coefficient (Papp) was calculated using the following equation. Papp = (Vr/C0) × (1/A) × ([Drug]/t) where, Vr is the volume of medium in the receiver chamber, C0 is the donor compartment concentration at time zero, A is the area of the cell monolayer, t is the treatment time of the drug, and [Drug] is the drug concentration in the receiver chamber.
Background: Passage across Caco-2 layers is used to estimate intestinal permeability.

The target in the next series is T3, CYP3A4 (Homo sapiens, UniProt P08684).
T3 construct: tissue Corning Life Sciences; host or cells: pooled human liver microsomes, 150 donors
Briefly: Reversible CYP3A4 inhibition, cocktail assay (midazolam 1′-hydroxylase) in human liver microsomes. As to conditions: midazolam probe. Type of series: biochemical. As for the experimental part: as §1, §2, §3

Where two headings read alike, the source gives them in different places.

T1 sequence (P11712 whole entry): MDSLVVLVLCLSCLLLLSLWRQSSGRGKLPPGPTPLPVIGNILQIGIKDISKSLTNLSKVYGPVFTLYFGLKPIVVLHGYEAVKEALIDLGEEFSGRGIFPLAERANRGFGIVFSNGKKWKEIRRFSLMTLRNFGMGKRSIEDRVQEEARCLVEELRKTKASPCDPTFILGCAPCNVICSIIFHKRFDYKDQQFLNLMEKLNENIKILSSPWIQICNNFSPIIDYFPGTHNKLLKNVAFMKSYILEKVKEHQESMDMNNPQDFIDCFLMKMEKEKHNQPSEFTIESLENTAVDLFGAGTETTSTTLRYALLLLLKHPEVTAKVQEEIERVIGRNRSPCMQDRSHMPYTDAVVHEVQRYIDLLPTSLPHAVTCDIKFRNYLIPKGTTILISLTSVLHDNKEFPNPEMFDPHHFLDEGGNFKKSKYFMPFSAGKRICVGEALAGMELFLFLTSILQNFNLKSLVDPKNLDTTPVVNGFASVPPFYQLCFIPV
T3 sequence (P08684 whole entry): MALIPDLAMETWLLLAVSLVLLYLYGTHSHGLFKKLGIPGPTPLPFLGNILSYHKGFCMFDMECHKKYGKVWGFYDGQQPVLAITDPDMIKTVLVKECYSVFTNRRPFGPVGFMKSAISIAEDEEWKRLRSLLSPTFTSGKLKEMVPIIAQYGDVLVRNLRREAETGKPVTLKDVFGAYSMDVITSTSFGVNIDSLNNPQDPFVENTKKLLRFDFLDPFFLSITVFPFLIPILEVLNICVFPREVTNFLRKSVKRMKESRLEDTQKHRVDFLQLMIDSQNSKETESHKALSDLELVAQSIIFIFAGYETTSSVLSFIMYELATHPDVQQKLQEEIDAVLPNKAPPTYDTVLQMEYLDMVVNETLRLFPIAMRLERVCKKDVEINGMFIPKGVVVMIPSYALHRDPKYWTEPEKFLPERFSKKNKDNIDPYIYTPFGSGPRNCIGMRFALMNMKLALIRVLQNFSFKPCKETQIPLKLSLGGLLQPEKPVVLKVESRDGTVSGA
T2 sequence (P33261 whole entry): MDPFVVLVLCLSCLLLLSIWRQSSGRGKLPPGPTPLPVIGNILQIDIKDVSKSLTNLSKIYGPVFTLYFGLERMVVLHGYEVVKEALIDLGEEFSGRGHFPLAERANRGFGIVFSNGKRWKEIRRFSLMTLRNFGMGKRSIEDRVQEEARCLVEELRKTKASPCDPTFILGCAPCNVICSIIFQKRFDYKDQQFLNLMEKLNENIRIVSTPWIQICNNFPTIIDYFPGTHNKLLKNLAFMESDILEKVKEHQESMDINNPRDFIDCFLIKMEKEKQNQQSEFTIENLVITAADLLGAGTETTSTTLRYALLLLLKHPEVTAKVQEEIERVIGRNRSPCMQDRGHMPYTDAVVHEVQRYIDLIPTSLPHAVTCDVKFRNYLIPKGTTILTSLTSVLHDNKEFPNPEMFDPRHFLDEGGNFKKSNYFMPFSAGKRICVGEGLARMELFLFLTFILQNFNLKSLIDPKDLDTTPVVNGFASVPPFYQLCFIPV

For the compound `CC(C)=CCc1cc([C@@H]2CC(=O)c3ccc(O)c(CC=C(C)C)c3O2)cc(CC=C(C)C)c1O` [SPN, (‒)-Sophoranone], in series [1], the “maximum plasma concentration (Cmax)” value was “approximately 13.1 ng/mL”. The compound also registered an inhibition constant Ki on CYP2C9 (Ki values, CYP2C9 probe diclofenac, diclofenac 2, 5, and 10 µM) of 587 ± 47 nM. On CYP2C9 (best fit based on AIC values), the “Mode of inhibition, CYP2C9 probe diclofenac” value was “Competitive” and the “Mode of inhibition, CYP2C9 probe tolbutamide” value was “Competitive”. Further, the Ki at CYP2C9 (tolbutamide 50, 100, and 150 µM, read-out: Ki values, CYP2C9 probe tolbutamide) came out at 503 ± 38.3 nM. For the same compound, the midpoint of inhibition on CYP2C19, the IC50, lay at 16800 ± 3210 nM. In series [2] (10 μM, 2 h, n = 3), the Papp A→B at 2 h, 10 µM is 0.115 ± 0.0369 ×10⁻⁶ cm/s and the apparent permeability from basolateral to apical (Papp B→A) at 2 h, 10 µM was determined as 0.101 ± 0.00444 ×10⁻⁶ cm/s. In series [2] (50 μM, 2 h, n = 3), this compound registered a Papp A→B at 2 h, 50 µM of 0.172 ± 0.0488 ×10⁻⁶ cm/s and a Papp B→A at 2 h, 50 µM of 0.152 ± 0.0353 ×10⁻⁶ cm/s. Further, the efflux ratio at 2 h in series [2] (not a substrate for P-gp and BCRP, read-out: efflux ratio (B-to-A/A-to-B)) is below 2. Besides, the “residual enzyme activity, CYP3A4” value at CYP3A4 (at the highest tested concentration (50 μM)) is given as 53.3 ± 4.00%. This compound had an IC50 at CYP3A4 (human liver microsomes 0.1 mg/mL, cocktail assay, n = 3) above 50000 nM.
